Results from ChEMBL document CHEMBL1201862, “PubChem BioAssay data set” (2004).
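96-well plates; 48 h exposure; 5 concentrations. Endpoints by linear interpolation between flanking doses. Not reached: highest tested concentration assigned. Here, GI50 denotes the concentration required for 50% inhibition of growth.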 Activity calls are given as the source filed them. No stated cut-off is given here; in the data, active = GI50 up to about 1.1 µM and inactive = higher.

How the values were obtained:
Assay in all cases: inhibition of tumour cell growth, NCI panel, 48 h
A498 = system: A498
A549 = system: A549
CAKI-1 = system: CAKI-1
CCRF-CEM = system: CCRF-CEM
COLO 205 = system: COLO 205
DLD-1 = system: DLD-1
DMS-114 = system: DMS-114
DMS-273 = system: DMS-273
EKVX = system: EKVX
HCC 2998 = system: HCC 2998
HCT-116 = system: HCT-116
HCT-15 = system: HCT-15
HL-60 = system: HL-60
HOP-18 = system: HOP-18
HOP-62 = system: HOP-62
HOP-92 = system: HOP-92
HT-29 = system: HT-29
IGROV-1 = system: IGROV-1
K562 = system: K562
KM-20L2 = system: KM-20L2
KM12 = system: KM12
LOX IMVI = system: LOX IMVI
M19-MEL = system: M19-MEL
MCF7 = system: MCF7
MOLT-4 = system: MOLT-4
Malme-3M = system: Malme-3M
NCI-H226 = system: NCI-H226
NCI-H23 = system: NCI-H23
NCI-H460 = system: NCI-H460
NCI-H522 = system: NCI-H522
NCI/ADR-RES = system: NCI/ADR-RES
OVCAR-3 = system: OVCAR-3
OVCAR-4 = system: OVCAR-4
OVCAR-5 = system: OVCAR-5
OVCAR-8 = system: OVCAR-8
RPMI-8226 = system: RPMI-8226
RXF 393 = system: RXF 393
SF-268 = system: SF-268
SF-295 = system: SF-295
SF-539 = system: SF-539
SK-MEL-28 = system: SK-MEL-28
SK-MEL-2 = system: SK-MEL-2
SK-MEL-5 = system: SK-MEL-5
SK-OV-3 = system: SK-OV-3
SN12C = system: SN12C
SNB-19 = system: SNB-19
SNB-75 = system: SNB-75
SNB-78 = system: SNB-78
SW-620 = system: SW-620
U-251 = system: U-251
UACC-257 = system: UACC-257
UACC-62 = system: UACC-62
UO-31 = system: UO-31
XF498 = system: XF498

How did the GI50 (A498) turn out when CC(=O)Nc1cccc(/N=N/N(C)C)c1 was run?
The GI50 was > 100 µM (inactive).

What about the GI50 (A549) of the same compound?
The GI50 was > 100 µM (inactive).

What about the GI50 (CAKI-1) of the same compound?
Its GI50 is > 100 µM (inactive).

What about the GI50 (CCRF-CEM) of the same compound?
Its GI50 is > 100 µM (inactive).

What about the GI50 (COLO 205) of the same compound?
The GI50 was > 100 µM (inactive).

And the GI50 (DLD-1)?
The GI50 was > 31.6 µM (inactive).

What about the GI50 (DMS-114) of the same compound?
Its GI50 is > 100 µM (inactive).

What about the GI50 (DMS-273) of the same compound?
Its GI50 is > 100 µM (inactive).

And the GI50 (EKVX)?
Its GI50 is > 100 µM (inactive).

What about the GI50 (HCC 2998) of the same compound?
Its GI50 is > 100 µM (inactive).

And the GI50 (HCT-116)?
Its GI50 is > 100 µM (inactive).

What about the GI50 (HCT-15) of the same compound?
Its GI50 is greater than 100 µM.

What about the GI50 (HL-60) of the same compound?
Its GI50 is > 100 µM (inactive).

What about the GI50 (HOP-18) of the same compound?
Its GI50 is > 100 µM (inactive).

And the GI50 (HOP-62)?
The GI50 was > 100 µM (inactive).

What about the GI50 (HOP-92) of the same compound?
The GI50 was > 100 µM (inactive).

What about the GI50 (HT-29) of the same compound?
Its GI50 is > 100 µM (inactive).

What about the GI50 (IGROV-1) of the same compound?
Its GI50 is > 100 µM (inactive).

What about the GI50 (K562) of the same compound?
The GI50 was 98.4 µM (inactive).

What about the GI50 (KM-20L2) of the same compound?
Its GI50 is > 100 µM (inactive).

What about the GI50 (KM12) of the same compound?
The GI50 was > 100 µM (inactive).

And the GI50 (LOX IMVI)?
The GI50 was > 100 µM (inactive).

And the GI50 (M19-MEL)?
The GI50 was > 100 µM (inactive).

And the GI50 (MCF7)?
Its GI50 is > 100 µM (inactive).

What about the GI50 (MOLT-4) of the same compound?
Its GI50 is > 100 µM (inactive).

What about the GI50 (Malme-3M) of the same compound?
Its GI50 is > 100 µM (inactive).

And the GI50 (NCI-H226)?
Its GI50 is > 100 µM (inactive).

What about the GI50 (NCI-H23) of the same compound?
Its GI50 is > 100 µM (inactive).

What about the GI50 (NCI-H460) of the same compound?
The GI50 was > 100 µM (inactive).

What about the GI50 (NCI-H522) of the same compound?
The GI50 was > 100 µM (inactive).

What about the GI50 (NCI/ADR-RES) of the same compound?
The GI50 was > 100 µM (inactive).

What about the GI50 (OVCAR-3) of the same compound?
Its GI50 is > 100 µM (inactive).

What about the GI50 (OVCAR-4) of the same compound?
The GI50 was > 100 µM (inactive).

And the GI50 (OVCAR-5)?
Its GI50 is > 100 µM (inactive).

What about the GI50 (OVCAR-8) of the same compound?
The GI50 was > 100 µM (inactive).

What about the GI50 (RPMI-8226) of the same compound?
The GI50 was > 100 µM (inactive).

And the GI50 (RXF 393)?
The GI50 was > 100 µM (inactive).

And the GI50 (SF-268)?
Its GI50 is > 100 µM (inactive).

And the GI50 (SF-295)?
The GI50 was > 63.8 µM (inactive).

And the GI50 (SF-539)?
Its GI50 is > 100 µM (inactive).

What about the GI50 (SK-MEL-28) of the same compound?
Its GI50 is > 95.3 µM (inactive).

What about the GI50 (SK-MEL-2) of the same compound?
The GI50 was > 100 µM (inactive).

What about the GI50 (SK-MEL-5) of the same compound?
The GI50 was > 100 µM (inactive).

What about the GI50 (SK-OV-3) of the same compound?
Its GI50 is > 100 µM (inactive).

And the GI50 (SN12C)?
The GI50 was > 100 µM (inactive).

And the GI50 (SNB-19)?
The GI50 was > 100 µM (inactive).

And the GI50 (SNB-75)?
Its GI50 is > 49.3 µM (inactive).

What about the GI50 (SNB-78) of the same compound?
Its GI50 is > 100 µM (inactive).

What about the GI50 (SW-620) of the same compound?
Its GI50 is > 100 µM (inactive).

What about the GI50 (U-251) of the same compound?
Its GI50 is > 100 µM (inactive).

And the GI50 (UACC-257)?
Its GI50 is > 100 µM (inactive).

What about the GI50 (UACC-62) of the same compound?
Its GI50 is > 100 µM (inactive).

And the GI50 (UO-31)?
Its GI50 is > 100 µM (inactive).

And the GI50 (XF498)?
The GI50 was > 100 µM (inactive).
